Source: PubChem BioAssay AID652194 (Johns Hopkins Ion Channel Center, 2013)
Calls of active or inactive are those of the source.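 The calls were made as follows: active = hERG flux cut by over 30% at some tested dose, with a fitted dose response curve; inactive = no hERG inhibition at any dose or no curve.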

Target: Voltage-gated inwardly rectifying potassium channel KCNH2 (Homo sapiens) (UniProt Q12809)
Assay: off-target hERG block by TASK1 inhibitor candidates – FluxOR thallium flux, concentration-response, CHO cells, selectivity assay for TASK1 inhibitor project, SAR follow-up (AID 652194)
Conditions: hERG-expressing cells, FluxOR thallium flux fluorescence; at 30 µM (top of the series)

Sequence of Voltage-gated inwardly rectifying potassium channel KCNH2 (Homo sapiens) (Q12809 whole entry, looked up): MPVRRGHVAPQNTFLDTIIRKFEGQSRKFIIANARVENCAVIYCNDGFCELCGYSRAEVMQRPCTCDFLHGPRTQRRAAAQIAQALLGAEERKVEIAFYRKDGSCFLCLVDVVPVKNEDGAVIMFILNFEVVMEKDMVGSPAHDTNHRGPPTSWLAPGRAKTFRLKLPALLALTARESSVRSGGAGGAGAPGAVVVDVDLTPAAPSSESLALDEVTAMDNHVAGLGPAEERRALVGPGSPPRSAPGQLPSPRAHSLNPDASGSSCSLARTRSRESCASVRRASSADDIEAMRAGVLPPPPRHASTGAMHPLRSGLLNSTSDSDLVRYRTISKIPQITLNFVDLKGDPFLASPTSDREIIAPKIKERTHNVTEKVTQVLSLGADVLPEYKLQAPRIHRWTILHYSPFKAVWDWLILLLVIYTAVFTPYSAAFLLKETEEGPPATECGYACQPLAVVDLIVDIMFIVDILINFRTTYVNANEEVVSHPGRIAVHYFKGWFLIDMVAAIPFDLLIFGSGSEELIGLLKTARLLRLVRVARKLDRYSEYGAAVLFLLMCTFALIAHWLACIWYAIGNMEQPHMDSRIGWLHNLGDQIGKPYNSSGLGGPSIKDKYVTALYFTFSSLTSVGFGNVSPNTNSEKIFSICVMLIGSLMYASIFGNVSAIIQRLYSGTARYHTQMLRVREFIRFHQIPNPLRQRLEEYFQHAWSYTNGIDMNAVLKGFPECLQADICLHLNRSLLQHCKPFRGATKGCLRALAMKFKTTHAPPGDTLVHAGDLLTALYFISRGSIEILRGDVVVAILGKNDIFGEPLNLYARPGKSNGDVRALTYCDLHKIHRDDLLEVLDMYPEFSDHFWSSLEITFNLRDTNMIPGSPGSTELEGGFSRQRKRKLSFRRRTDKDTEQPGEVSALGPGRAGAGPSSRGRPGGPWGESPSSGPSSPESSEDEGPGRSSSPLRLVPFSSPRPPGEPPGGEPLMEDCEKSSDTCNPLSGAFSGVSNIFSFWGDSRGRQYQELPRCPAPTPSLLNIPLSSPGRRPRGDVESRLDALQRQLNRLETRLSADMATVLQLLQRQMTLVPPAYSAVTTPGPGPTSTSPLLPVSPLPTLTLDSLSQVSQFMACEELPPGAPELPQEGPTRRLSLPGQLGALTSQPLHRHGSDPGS

Structure (SMILES)	flux ratio, lower = inhibition
CCOc1ccccc1NC(=O)c1cccc(NC(=O)CC2CCCC2)c1	inactive
CCOc1ccccc1NC(=O)c1cccc(NC(=O)c2ccccc2OC)c1	inactive
